In PubChem BioAssay AID248 (DTP/NCI, 2004):
Several values for one entry are separate records, joined by “and”; a condition that tells them apart may be missing. Identical values can stand only once. Toxic doses and inconclusive results are not listed. No stated cut-off is given here; in the data, active means T/C of 150% or more; inactive means T/C below 125%.

System: L1210 leukemia ip in BDF1 mice, survival T/C
Test: NCI In Vivo Anticancer Drug Screen. Data for tumor model L1210 Leukemia (intraperitoneal) in B6D2F1 (BDF1) mice
Conditions: endpoint: mean survival time, higher = longer survival
In short: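 Read-out is survival time, reported as the treated-group measurement over the vehicle-control measurement.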

[1] = dose: 100.0 mg/kg/injection, schedule: Q01DX001 (ip), vehicle: saline
[2] = dose: 25.0 mg/kg/injection, schedule: Q01DX009 (ip), vehicle: saline with Tween-80
[3] = dose: 50.0 mg/kg/injection, schedule: Q01DX009 (ip), vehicle: saline with Tween-80
[4] = dose: 100.0 mg/kg/injection, schedule: Q01DX009 (ip), vehicle: saline with Tween-80
[5] = dose: 100.0 mg/kg/injection, schedule: Q04DX003 (ip), vehicle: saline
[6] = dose: 200.0 mg/kg/injection, schedule: Q04DX003 (ip), vehicle: saline
[7] = dose: 400.0 mg/kg/injection, schedule: Q04DX003 (ip), vehicle: saline
[8] = dose: 200.0 mg/kg/injection, schedule: Q01DX001 (ip), vehicle: saline
[9] = dose: 50.0 mg/kg/injection, schedule: Q04DX003 (ip), vehicle: saline with Tween-80
[10] = dose: 100.0 mg/kg/injection, schedule: Q04DX003 (ip), vehicle: saline with Tween-80
[11] = dose: 200.0 mg/kg/injection, schedule: Q01DX009 (ip), vehicle: saline with Tween-80
[12] = dose: 200.0 mg/kg/injection, schedule: Q04DX003 (ip), vehicle: saline with Tween-80
[13] = dose: 400.0 mg/kg/injection, schedule: Q01DX009 (ip), vehicle: saline with Tween-80
[14] = dose: 400.0 mg/kg/injection, schedule: Q04DX003 (ip), vehicle: saline with Tween-80
[15] = dose: 100.0 mg/kg/injection, schedule: Q01DX001 (ip), vehicle: saline with Tween-80

Measured: T/C

O=S(=O)(O)C(Cl)c1ccccc1 (configuration not stated)
inactive: dose: 100.0 mg/kg/injection, schedule: Q04DX002 (ip), vehicle: saline 105 % of control | dose: 200.0 mg/kg/injection, schedule: Q04DX002 (ip), vehicle: saline 102 % of control | dose: 400.0 mg/kg/injection, schedule: Q04DX002 (ip), vehicle: saline 98 % of control

CSc1nn(C)c[n+]1-c1ccccc1
inactive: [1] 105 % of control

CS(=O)(=O)c1nc2ccccc2s1
inactive: [2] 97 % of control | dose: 25.0 mg/kg/injection, schedule: Q04DX003 (ip), vehicle: Klucel (hydroxypropylcellulose) (HPC) 101 % of control | [3] 92 % of control | dose: 50.0 mg/kg/injection, schedule: Q04DX003 (ip), vehicle: Klucel (hydroxypropylcellulose) (HPC) 106 % of control | [4] 107 % of control | dose: 100.0 mg/kg/injection, schedule: Q04DX003 (ip), vehicle: Klucel (hydroxypropylcellulose) (HPC) 106 % of control

CCCCCC(=O)NCC(=O)N1CCC(C(=O)NCCCCC(=O)OC)C1 (configuration not stated)
inactive: [5] 97 % of control | [6] 94 % of control | [7] 86 % of control

O=C1C(F)=C(N2CC2)C(=O)C(N2CCOCC2)=C1N1CC1
inactive: dose: 0.39 mg/kg/injection, schedule: Q04DX003 (ip), vehicle: saline 94 % of control and 108 % of control | dose: 0.75 mg/kg/injection, schedule: Q01DX009 (ip), vehicle: saline 114 % of control and 122 % of control | dose: 0.78 mg/kg/injection, schedule: Q04DX003 (ip), vehicle: saline 100 % of control | dose: 1.5 mg/kg/injection, schedule: Q01DX009 (ip), vehicle: saline 111 % of control | dose: 1.56 mg/kg/injection, schedule: Q04DX003 (ip), vehicle: saline 102 % of control and 112 % of control | dose: 3.0 mg/kg/injection, schedule: Q01DX009 (ip), vehicle: saline 110 % of control and 112 % of control | dose: 3.12 mg/kg/injection, schedule: Q01DX001 (ip), vehicle: saline 91 % of control | dose: 3.12 mg/kg/injection, schedule: Q04DX003 (ip), vehicle: saline 105 % of control and 107 % of control | dose: 6.0 mg/kg/injection, schedule: Q01DX009 (ip), vehicle: saline 111 % of control | dose: 6.25 mg/kg/injection, schedule: Q01DX001 (ip), vehicle: saline 104 % of control | dose: 6.25 mg/kg/injection, schedule: Q04DX003 (ip), vehicle: saline 105 % of control and 121 % of control | dose: 12.5 mg/kg/injection, schedule: Q01DX001 (ip), vehicle: saline 92 % of control

O=C(N/N=C\c1cc(=O)[nH]c(=O)[nH]1)c1ccncc1
inactive: dose: 50.0 mg/kg/injection, schedule: Q01DX001 (ip), vehicle: saline 90 % of control | [1] 95 % of control | [8] 95 % of control

CN1C(=O)C=C(N)C1=O
inactive: [5] 96 % of control | [6] 94 % of control | [7] 91 % of control

O=C(CC(O)(C(F)(F)Cl)C(F)(F)Cl)c1cccs1
inactive: [9] 101 % of control | [4] 108 % of control | [10] 101 % of control | [11] 114 % of control | [12] 98 % of control | [13] 98 % of control | [14] 98 % of control

O=C1c2ccccc2C(=Cc2ccccc2)c2ccccc21
inactive: [4] 107 % of control | [10] 101 % of control | [11] 107 % of control | [12] 100 % of control | [13] 104 % of control | [14] 92 % of control

CS/C(N)=N/N=C(\N)SC
inactive: [2] 101 % of control | dose: 25.0 mg/kg/injection, schedule: Q04DX003 (ip), vehicle: saline with Tween-80 91 % of control | [3] 95 % of control | [9] 90 % of control | [15] 102 % of control | [10] 111 % of control

CC1(C)OCC(C2OC(=S)OC2C2COC(C)(C)O2)O1 (configuration not stated)
inactive: dose: 50.0 mg/kg/injection, schedule: Q04DX002 (ip), vehicle: Klucel (hydroxypropylcellulose) (HPC) 93 % of control | dose: 100.0 mg/kg/injection, schedule: Q04DX002 (ip), vehicle: Klucel (hydroxypropylcellulose) (HPC) 98 % of control | dose: 200.0 mg/kg/injection, schedule: Q04DX002 (ip), vehicle: Klucel (hydroxypropylcellulose) (HPC) 104 % of control

CC(C)(C)C1=C(C(C)(C)C)CS(=O)(=O)C1
inactive: dose: 25.0 mg/kg/injection, schedule: Q01DX001 (ip), vehicle: saline with Tween-80 98 % of control | dose: 50.0 mg/kg/injection, schedule: Q01DX001 (ip), vehicle: saline with Tween-80 100 % of control | [15] 100 % of control and 107 % of control

O/N=C1/CCN2CCCc3cccc1c32
inactive: [10] 94 % of control | [12] 97 % of control

Cc1ccc(/C=N/NC(=O)c2ccccc2NC(=O)c2ccccc2)cc1
inactive: dose: 100.0 mg/kg/injection, schedule: Q01DX009 (ip), vehicle: Klucel (hydroxypropylcellulose) (HPC) 105 % of control | dose: 200.0 mg/kg/injection, schedule: Q01DX009 (ip), vehicle: Klucel (hydroxypropylcellulose) (HPC) 97 % of control | dose: 400.0 mg/kg/injection, schedule: Q01DX009 (ip), vehicle: Klucel (hydroxypropylcellulose) (HPC) 95 % of control

CN(C)P(=O)(N(C)C)N(C)C.[Cl][Al]([Cl])[Cl]
inactive: dose: 50.0 mg/kg/injection, schedule: Q01DX009 (ip), vehicle: saline 91 % of control | dose: 100.0 mg/kg/injection, schedule: Q01DX009 (ip), vehicle: saline 88 % of control | dose: 200.0 mg/kg/injection, schedule: Q01DX009 (ip), vehicle: saline 95 % of control

COC(=O)/C=C/c1cccc([N+](=O)[O-])c1
inactive: [1] 100 % of control | [8] 100 % of control | dose: 400.0 mg/kg/injection, schedule: Q01DX001 (ip), vehicle: saline 100 % of control
